Reference: US9814699B2, “Chemical compounds” (Janssen Pharmaceuticals, Inc., priority 2009, dated 2017)

Columns and labels:
[1] = test system: HCV genotype 1a subgenomic replicon; assay: HCV replicon assay, genotype 1a subgenomic replicon (luciferase); assay type: cell-based; settings: Hepatitis C virus; genotype 1a replicon stable cell line, luciferase activity measured 48 hours later; read-out: Replicon 1A pEC50 (converted)
Procedure: (§1) Protocol for Testing and Data Analysis of Compounds in the HCV Replicon Assay
(§2) Compounds were assayed for activity against HCV using the genotype 1a and 1b subgenomic replicon model systems. Stable cell lines bearing the genotype 1a and 1b replicons were used for screening of compounds. Both replicons are bicistronic and contain the firefly luciferase gene. The ET cell line is stably transfected with RNA transcripts harboring a I389luc-ubi-neo/NS3-3′/ET replicon with firefly luciferase-ubiquitin-neomycin phosphotransferase fusion protein and EMCV-IRES driven NS3-5B polyprotein containing the cell culture adaptive mutations (E1202G; T1280I; K1846T) (Krieger at al, 2001 and unpublished). The genotype 1a replicon is a stable cell line licensed from Apath LLC, modified to contain the firefly luciferase gene. The cells were grown in DMEM, supplemented with 10% fetal calf serum, 2 mM Glutamine, Penicillin (100 IU/mL)/Streptomycin (100 μg/mL), 1× nonessential amino acids, and 250-500 μg/mL G418 (“Geneticin”). They were all available through Life Technologies (Bethesda, Md.). The cells were plated at 5×10^3 cells/well in 384 well plates containing compounds. The final concentration of compounds ranged between 0.03 pM to 50 μm and the final DMSO concentration of 0.5-1%.
(§3) Luciferase activity was measured 48 hours later by adding a Steady glo reagent (Promega, Madison, Wis.). Percent inhibition of replication data was plotted relative to no compound control. Under the same condition, cytotoxicity of the compounds was determined using cell titer glo (Promega, Madison, Ws). EC50s were determined from an 11 point dose response curve using 3-4-fold serial dilution for each compound, which spans a concentration range >1000 fold. The level of inhibition for each compound was determined with Activity Base or with BioAssay plus the Excel XC50 module. Percent inhibition was determined with the following equation where the cross-talk corrected value is the value from the test well, the compound positive control mean is the average value of the wells with no compound present, and the DMSO negative control mean is the average value of the wells with DMSO but no cells present.
(§4) [formula] These normalized values are exported to EC50 where they are plotted against the molar compound concentrations using the standard four parameter logistic equation: […]

[2] = test system: HCV genotype 1b subgenomic replicon; assay: HCV replicon assay, genotype 1b subgenomic replicon (ET cell line, luciferase); assay type: cell-based; settings: Hepatitis C virus; genotype 1b replicon ET cell line, luciferase activity measured 48 hours later; read-out: Replicon 1B pEC50 (converted)
Procedure: as §1, §2, §3, §4

`COC(=O)N[C@H](C(=O)N1CC2(CCOCC2)CC1c1ncc(-c2ccc(-c3ccc(-c4cnc([C@@H]5CCCN5C(=O)[C@@H](NC(=O)OC)C(C)C)[nH]4)cc3)cc2)[nH]1)C(C)C` (stereo partly drawn) [Example 15, methyl [(1S)-2-methyl-1-({(2S)-2-[4-(4′-{2-[2-((2S)-3-methyl-2-{[(methyloxy)carbonyl]amino}butanoyl)-8-oxa-2-azaspiro[4.5]dec-3-yl]-1H-imidazol-4-yl}-4-biphenylyl)-1H-imidazol-2-yl]-1-pyrrolidinyl}carbonyl)propyl]carbamate] was tested, and the EC50 [1] was 0.0631 nM and the EC50 [2] was 0.0158 nM.
In the case of `COC(=O)N[C@H](C(=O)N1CC2(CCS(=O)(=O)CC2)CC1c1ncc(-c2ccc(-c3ccc(-c4cnc([C@@H]5CCCN5C(=O)[C@@H](NC(=O)OC)C(C)C)[nH]4)cc3)cc2)[nH]1)C(C)C` (stereo partly drawn) [Example 16, methyl [(1S)-2-methyl-1-({(2S)-2-[4-(4′-{2-[2-((2S)-3-methyl-2-{[(methyloxy)carbonyl]amino}butanoyl)-8,8-dioxido-8-thia-2-azaspiro[4.5]dec-3-yl]-1H-imidazol-4-yl}-4-biphenylyl)-1H-imidazol-2-yl]-1-pyrrolidinyl}carbonyl)propyl]carbamate], the EC50 [1] is reported as 0.398 nM and the EC50 [2] is reported as 0.0398 nM.
Work on `COC(=O)N[C@H](C(=O)N1CCC[C@H]1c1ncc(-c2ccc(-c3ccc(-c4cnc([C@@H]5CC6(CCC(F)(F)CC6)CN5C(=O)[C@@H](NC(=O)OC)C(C)C)[nH]4)cc3)cc2)[nH]1)C(C)C` [Example 17, methyl [(1S)-1-({(2S)-2-[4-(4′-{2-[8,8-difluoro-2-((2S)-3-methyl-2-{[(methyloxy)carbonyl]amino}butanoyl)-2-azaspiro[4.5]dec-3-yl]-1H-imidazol-4-yl}-4-biphenylyl)-1H-imidazol-2-yl]-1-pyrrolidinyl}carbonyl)-2-methylpropyl]carbamate] yielded an EC50 [1] of 0.0398 nM and an EC50 [2] of 0.00251 nM.
With `COC(=O)N[C@H](C(=O)N1CC2(CCOCC2)C[C@H]1c1nc(-c2ccc(-c3ccc(-c4cnc([C@@H]5CC6(CCOCC6)CN5C(=O)[C@@H](NC(=O)OC)C(C)C)[nH]4)cc3)cc2)c[nH]1)C(C)C` [Example 18, dimethyl (4,4′-biphenyldiylbis{1H-imidazole-4,2-diyl(3S)-8-oxa-2-azaspiro[4.5]decane-3,2-diyl[(2S)-3-methyl-1-oxo-1,2-butanediyl]})biscarbamate] the EC50 [1] was 0.02 nM and the EC50 [2] was 0.0126 nM.
`COC(=O)N[C@H](C(=O)N1CC2(CCN(C(=O)OC(C)(C)C)CC2)CC1c1ncc(-c2ccc(-c3ccc(-c4cnc([C@@H]5CCCN5C(=O)[C@@H](NC(=O)OC)C(C)C)[nH]4)cc3)cc2)[nH]1)C(C)C` (stereo partly drawn) [Example 19, 1,1-dimethylethyl 2-{N-[(methyloxy)carbonyl]-L-valyl}-3-(4-{4′-[2-((2S)-1-{N-[(methyloxy)carbonyl]-L-valyl}-2-pyrrolidinyl)-1H-imidazol-4-yl]-4-biphenylyl}-1H-imidazol-2-yl)-2,8-diazaspiro[4.5]decane-8-carboxylate] gave an EC50 [1] of 10 nM and an EC50 [2] of 0.0398 nM.
For `COC(=O)N[C@H](C(=O)N1CC2(CCNCC2)CC1c1ncc(-c2ccc(-c3ccc(-c4cnc([C@@H]5CCCN5C(=O)[C@@H](NC(=O)OC)C(C)C)[nH]4)cc3)cc2)[nH]1)C(C)C` (stereo partly drawn) [Example 20, methyl [(1S)-2-methyl-1-({(2S)-2-[4-(4′-{2-[2-((2S)-3-methyl-2-{[(methyloxy)carbonyl]amino}butanoyl)-2,8-diazaspiro[4.5]dec-3-yl]-1H-imidazol-4-yl}-4-biphenylyl)-1H-imidazol-2-yl]-1-pyrrolidinyl}carbonyl)propyl]carbamate], the EC50 [1] was > 31.6 nM and the EC50 [2] was 1.58 nM.
Compound `COC(=O)N[C@H](C(=O)N1CC2(CCN(C(C)=O)CC2)CC1c1ncc(-c2ccc(-c3ccc(-c4cnc([C@@H]5CCCN5C(=O)[C@@H](NC(=O)OC)C(C)C)[nH]4)cc3)cc2)[nH]1)C(C)C` (stereo partly drawn) [Example 21, methyl [(1S)-1-({(2S)-2-[4-(4′-{2-[8-acetyl-2-((2S)-3-methyl-2-{[(methyloxy)carbonyl]amino}butanoyl)-2,8-diazaspiro[4.5]dec-3-yl]-1H-imidazol-4-yl}-4-biphenylyl)-1H-imidazol-2-yl]-1-pyrrolidinyl}carbonyl)-2-methylpropyl]carbamate] has an EC50 [1] of 10 nM and an EC50 [2] of 0.2 nM.
Work on `COC(=O)N[C@H](C(=O)N1CC2(CCN(C(=O)OC)CC2)CC1c1ncc(-c2ccc(-c3ccc(-c4cnc([C@@H]5CCCN5C(=O)[C@@H](NC(=O)OC)C(C)C)[nH]4)cc3)cc2)[nH]1)C(C)C` (stereo partly drawn) [Example 22, methyl 2-{N-[(methyloxy)carbonyl]-L-valyl}-3-(4-{4′-[2-((2S)-1-{N-[(methyloxy)carbonyl]-L-valyl}-2-pyrrolidinyl)-1H-imidazol-4-yl]-4-biphenylyl}-1H-imidazol-2-yl)-2,8-diazaspiro[4.5]decane-8-carboxylate] yielded an EC50 [1] of 0.794 nM and an EC50 [2] of 0.0158 nM.
With `COC(=O)N[C@H](C(=O)N1CC2(CC1c1ncc(-c3ccc(-c4ccc(-c5cnc([C@@H]6CCCN6C(=O)[C@@H](NC(=O)OC)C(C)C)[nH]5)cc4)cc3)[nH]1)CN(C(=O)OC(C)(C)C)C2)C(C)C` (stereo partly drawn) [Example 23, 1,1-dimethylethyl 6-{N-[(methyloxy)carbonyl]-L-valyl}-7-(4-{4′-[2-((2S)-1-{N-[(methyloxy)carbonyl]-L-valyl}-2-pyrrolidinyl)-1H-imidazol-4-yl]-4-biphenylyl}-1H-imidazol-2-yl)-2,6-diazaspiro[3.4]octane-2-carboxylate] the EC50 [1] was 1.26 nM and the EC50 [2] was 0.01 nM.
`COC(=O)N[C@H](C(=O)N1CC2(CNC2)CC1c1ncc(-c2ccc(-c3ccc(-c4cnc([C@@H]5CCCN5C(=O)[C@@H](NC(=O)OC)C(C)C)[nH]4)cc3)cc2)[nH]1)C(C)C` (stereo partly drawn) [Example 24, methyl [(1S)-2-methyl-1-({(2S)-2-[4-(4′-{2-[6-((2S)-3-methyl-2-{[(methyloxy)carbonyl]amino}butanoyl)-2,6-diazaspiro[3.4]oct-7-yl]-1H-imidazol-4-yl}-4-biphenylyl)-1H-imidazol-2-yl]-1-pyrrolidinyl}carbonyl)propyl]carbamate] was tested, and the EC50 [1] was 3.16 nM and the EC50 [2] was 0.126 nM.
`COC(=O)N[C@H](C(=O)N1CC2(CC1c1ncc(-c3ccc(-c4ccc(-c5cnc([C@@H]6CCCN6C(=O)[C@@H](NC(=O)OC)C(C)C)[nH]5)cc4)cc3)[nH]1)CN(C(C)=O)C2)C(C)C` (stereo partly drawn) [Example 25, methyl [(1S)-1-({(2S)-2-[4-(4′-{2-[2-acetyl-6-((2S)-3-methyl-2-{[(methyloxy)carbonyl]amino}butanoyl)-2,6-diazaspiro[3.4]oct-7-yl]-1H-imidazol-4-yl}-4-biphenylyl)-1H-imidazol-2-yl]-1-pyrrolidinyl}carbonyl)-2-methylpropyl]carbamate] was tested, and the EC50 [1] was 1.26 nM and the EC50 [2] was 0.158 nM.
With `COC(=O)N[C@H](C(=O)N1CC2(CC1c1ncc(-c3ccc(-c4ccc(-c5cnc([C@@H]6CCCN6C(=O)[C@@H](NC(=O)OC)C(C)C)[nH]5)cc4)cc3)[nH]1)CN(C(=O)OC)C2)C(C)C` (stereo partly drawn) [Example 26, methyl 6-{N-[(methyloxy)carbonyl]-L-valyl}-7-(4-{4′-[2-((2S)-{N-[(methyloxy)carbonyl]-L-valyl}-2-pyrrolidinyl)-1H-imidazol-4-yl]-4-biphenylyl}-1H-imidazol-2-yl)-2,6-diazaspiro[3.4]octane-2-carboxylate] the EC50 [1] was 2 nM and the EC50 [2] was 0.0501 nM.
Work on `CNC(=O)N1CC2(CC(c3ncc(-c4ccc(-c5ccc(-c6cnc([C@@H]7CCCN7C(=O)[C@@H](NC(=O)OC)C(C)C)[nH]6)cc5)cc4)[nH]3)N(C(=O)[C@@H](NC(=O)OC)C(C)C)C2)C1` (stereo partly drawn) [Example 27, methyl [(1S)-2-methyl-1-({(2S)-2-[4-(4′-{2-[2-[(methylamino)carbonyl]-6-((2S)-3-methyl-2-{[(methyloxy)carbonyl]amino}butanoyl)-2,6-diazaspiro[3.4]oct-7-yl]-1H-imidazol-4-yl}-4-biphenylyl)-1H-imidazol-2-yl]-1-pyrrolidinyl}carbonyl)propyl]carbamate] yielded an EC50 [1] of 6.31 nM and an EC50 [2] of 0.251 nM.
Work on `COC(=O)N[C@H](C(=O)N1CC2(CC1c1ncc(-c3ccc(-c4ccc(-c5cnc([C@@H]6CCCN6C(=O)[C@@H](NC(=O)OC)C(C)C)[nH]5)cc4)cc3)[nH]1)CN(S(C)(=O)=O)C2)C(C)C` (stereo partly drawn) [Example 28, methyl [(1S)-2-methyl-1-({(2S)-2-[4-(4′-{2-[6-((2S)-3-methyl-2-{[(methyloxy)carbonyl]amino}butanoyl)-2-(methylsulfonyl)-2,6-diazaspiro[3.4]oct-7-yl]-1H-imidazol-4-yl}-4-biphenylyl)-1H-imidazol-2-yl]-1-pyrrolidinyl}carbonyl)propyl]carbamate] yielded an EC50 [1] of 1.58 nM and an EC50 [2] of 0.0501 nM.
